Where two headings read alike, the source gives them in different places.
What was measured:
[1] = tested on: Puccinia triticina; Synonym: Puccinia recondite f. sp. tritici; test: Wheat brown rust (PUCCRT) disease control on wheat seedlings; assay type: in vivo; details: Puccinia triticina, High volume application, 100 ppm
Method: Technical grades of materials were dissolved in acetone, which were then mixed with nine volumes of water containing 110 ppm Triton X-100. The fungicide solutions were applied onto wheat seedlings using an automated booth sprayer to run-off. All sprayed plants were allowed to air dry prior to further handling. All fungicides were evaluated using the aforementioned method for their activity vs. all target diseases. Wheat leaf blotch and brown rust activity were also evaluated using track spray applications, in which case the fungicides were formulated as EC formulations, containing 0.1% Trycol 5941 in the spray solutions. Wheat plants (variety Yuma) were grown from seed in a greenhouse in 50% mineral soil/50% soil-less Metro mix until the first leaf was fully emerged, with 7-10 seedlings per pot. These plants were inoculated with an aqueous spore suspension of Puccinia triticina either prior to or after fungicide treatments. After inoculation the plants were kept in a dark dew room at 22° C. with 100% relative humidity overnight to permit spores to germinate and infect the leaf. The plants were then transferred to a greenhouse set at 24° C. for disease to develop. Fungicide formulation, application and disease assessment followed the procedures as described in the Example A.

[2] = tested on: Mycosphaerella graminicola; Anamorph: Septoria tritici; test: Leaf blotch of wheat (SEPTTR) disease control on wheat seedlings; assay type: in vivo; details: Zymoseptoria tritici, High volume application, 100 ppm
Method: Technical grades of materials were dissolved in acetone, which were then mixed with nine volumes of water containing 110 ppm Triton X-100. The fungicide solutions were applied onto wheat seedlings using an automated booth sprayer to run-off. All sprayed plants were allowed to air dry prior to further handling. All fungicides were evaluated using the aforementioned method for their activity vs. all target diseases. Wheat leaf blotch and brown rust activity were also evaluated using track spray applications, in which case the fungicides were formulated as EC formulations, containing 0.1% Trycol 5941 in the spray solutions. Wheat plants (variety Yuma) were grown from seed in a greenhouse in 50% mineral soil/50% soil-less Metro mix until the first leaf was fully emerged, with 7-10 seedlings per pot. These plants were inoculated with an aqueous spore suspension of Septoria tritici either prior to or after fungicide treatments. After inoculation the plants were kept in 100% relative humidity (one day in a dark dew chamber followed by two to three days in a lighted dew chamber at 20° C.) to permit spores to germinate and infect the leaf. The plants were then transferred to a greenhouse set at 20° C. for disease to develop. When disease symptoms were fully expressed on the 1st leaves of untreated plants, infection levels were assessed on a scale of 0 to 100 percent disease severity. Percent disease control was calculated using the ratio of disease severity on treated plants relative to untreated plants.

[3] = 24 h, 1 Day Protectant, read-out: PUCCRT 1DP disease control
[4] = 72 h, 3 Day Curative, read-out: PUCCRT 3DC disease control
[5] = 24 h, 1 Day Protectant, read-out: SEPTTR 1DP disease control
[6] = 72 h, 3 Day Curative, read-out: SEPTTR 3DC disease control

What does the source list for C=C(C)CO[C@H]1[C@H](C)OC(=O)[C@@H](NC(=O)c2nccc(OC)c2O)CCC[C@@H]1OCC(=C)C [F14, 3-hydroxy-4-methoxy-N-((3S,7S,8S,9S)-9-methyl-7,8-bis((2-methylallyl)oxy)-2-oxooxonan-3-yl)pyridine-2-carboxamide]?
pest or weed control at 100 ppm [1, 3]: 80 to 100%; pest or weed control at 100 ppm [1, 4]: 80 to 100%; pest or weed control at 100 ppm [2, 5]: < 0%; pest or weed control at 100 ppm [2, 6]: 80 to 100%

Which results are given for COc1ccnc(C(=O)N[C@H]2CCC[C@H](OCc3ccccc3)[C@@H](OCc3ccccc3)[C@H](C)OC2=O)c1O [F22]?
pest or weed control at 100 ppm [1, 3]: 80 to 100%; pest or weed control at 100 ppm [1, 4]: 80 to 100%; pest or weed control at 100 ppm [2, 5]: 80 to 100%; pest or weed control at 100 ppm [2, 6]: 80 to 100%

COc1ccnc(C(=O)N[C@H]2CCC[C@H](OCc3ccccc3)[C@@H](Oc3ccccc3)[C@H](C)OC2=O)c1O [F23] was tested. Which pest or weed control at 100 ppm [1, 3] did it give?
The pest or weed control at 100 ppm was 80 to 100%.

What about the pest or weed control at 100 ppm [1, 4] of the same compound?
Its pest or weed control at 100 ppm is 80 to 100%.

And the pest or weed control at 100 ppm [2, 5]?
The pest or weed control at 100 ppm was 80 to 100%.

What about the pest or weed control at 100 ppm [2, 6] of the same compound?
The pest or weed control at 100 ppm was 80 to 100%.

Which pest or weed control at 100 ppm [1, 3] does the source give for COc1ccnc(C(=O)N[C@H]2CCC[C@H](Oc3ccccc3)[C@@H](OCc3ccccc3)[C@H](C)OC2=O)c1O [F24] here?
The pest or weed control at 100 ppm was 80 to 100%.

And the pest or weed control at 100 ppm [1, 4]?
The pest or weed control at 100 ppm was 80 to 100%.

What about the pest or weed control at 100 ppm [2, 5] of the same compound?
The pest or weed control at 100 ppm was 80 to 100%.

And the pest or weed control at 100 ppm [2, 6]?
The pest or weed control at 100 ppm was 80 to 100%.

How did the pest or weed control at 100 ppm [1, 3] turn out when COc1ccnc(C(=O)N[C@H]2CCC[C@H](OCC(C)C)[C@@H](Oc3ccccc3)[C@H](C)OC2=O)c1O [F25] was run?
Its pest or weed control at 100 ppm is 80 to 100%.

What about the pest or weed control at 100 ppm [1, 4] of the same compound?
Its pest or weed control at 100 ppm is 80 to 100%.

What about the pest or weed control at 100 ppm [2, 5] of the same compound?
The pest or weed control at 100 ppm was 80 to 100%.

What about the pest or weed control at 100 ppm [2, 6] of the same compound?
The pest or weed control at 100 ppm was 80 to 100%.

Which results are given for COc1ccnc(C(=O)N[C@H]2CCC[C@H](Oc3ccccc3)[C@@H](OCC(C)C)[C@H](C)OC2=O)c1O [F27]?
pest or weed control at 100 ppm [1, 3]: 80 to 100%; pest or weed control at 100 ppm [1, 4]: 80 to 100%; pest or weed control at 100 ppm [2, 5]: 80 to 100%; pest or weed control at 100 ppm [2, 6]: 80 to 100%

Which pest or weed control at 100 ppm [1, 3] does the source give for COc1ccnc(C(=O)N[C@H]2CCC[C@H](Oc3ccccc3)[C@@H](OCc3ccccc3)[C@H](C)OC2=O)c1OCOC(C)=O [F32] here?
Its pest or weed control at 100 ppm is 80 to 100%.

And the pest or weed control at 100 ppm [1, 4]?
The pest or weed control at 100 ppm was 80 to 100%.

And the pest or weed control at 100 ppm [2, 5]?
The pest or weed control at 100 ppm was 80 to 100%.

What about the pest or weed control at 100 ppm [2, 6] of the same compound?
The pest or weed control at 100 ppm was 80 to 100%.

How did the pest or weed control at 100 ppm [1, 3] turn out when COc1ccnc(C(=O)N[C@H]2CCC[C@H](OCC(C)C)[C@@H](OC3CCCC3)[C@H](C)OC2=O)c1O [F33] was run?
Its pest or weed control at 100 ppm is 80 to 100%.

What about the pest or weed control at 100 ppm [1, 4] of the same compound?
Its pest or weed control at 100 ppm is 80 to 100%.

And the pest or weed control at 100 ppm [2, 5]?
The pest or weed control at 100 ppm was 0 to 80%.

What about the pest or weed control at 100 ppm [2, 6] of the same compound?
Its pest or weed control at 100 ppm is 80 to 100%.

COc1ccnc(C(=O)N[C@H]2CCC[C@H](OCC(C)C)[C@@H](OCCCc3ccccc3)[C@H](C)OC2=O)c1O [F40] was tested. Which pest or weed control at 100 ppm [1, 3] did it give?
The pest or weed control at 100 ppm was 80 to 100%.

What about the pest or weed control at 100 ppm [1, 4] of the same compound?
Its pest or weed control at 100 ppm is 80 to 100%.

And the pest or weed control at 100 ppm [2, 5]?
The pest or weed control at 100 ppm was 0 to 80%.

What about the pest or weed control at 100 ppm [2, 6] of the same compound?
Its pest or weed control at 100 ppm is 0 to 80%.

How did the pest or weed control at 100 ppm [1, 3] turn out when COc1ccnc(C(=O)N[C@H]2CCC[C@H](OCC(C)C)[C@@H](OC(=O)C3CC3)[C@H](C)OC2=O)c1OC(C)=O [F42] was run?
Its pest or weed control at 100 ppm is 80 to 100%.

And the pest or weed control at 100 ppm [1, 4]?
Its pest or weed control at 100 ppm is 80 to 100%.

And the pest or weed control at 100 ppm [2, 5]?
Its pest or weed control at 100 ppm is 80 to 100%.

What about the pest or weed control at 100 ppm [2, 6] of the same compound?
Its pest or weed control at 100 ppm is 80 to 100%.

COc1ccnc(C(=O)N[C@H]2CCC[C@H](OCC(C)C)[C@@H](OCCCc3ccccc3)[C@H](C)OC2=O)c1OCOC(C)=O [F43] was tested. Which pest or weed control at 100 ppm [1, 3] did it give?
The pest or weed control at 100 ppm was 80 to 100%.

And the pest or weed control at 100 ppm [1, 4]?
Its pest or weed control at 100 ppm is 80 to 100%.

What about the pest or weed control at 100 ppm [2, 5] of the same compound?
Its pest or weed control at 100 ppm is 80 to 100%.

What about the pest or weed control at 100 ppm [2, 6] of the same compound?
The pest or weed control at 100 ppm was 80 to 100%.

What does the source list for COc1ccnc(C(=O)N[C@H]2CCC[C@H](Oc3ccc(F)cc3)[C@@H](Oc3ccc(F)cc3)[C@H](C)OC2=O)c1OCOC(C)=O [F48]?
pest or weed control at 100 ppm [1, 3]: 80 to 100%; pest or weed control at 100 ppm [1, 4]: 80 to 100%; pest or weed control at 100 ppm [2, 5]: 80 to 100%; pest or weed control at 100 ppm [2, 6]: 80 to 100%

Which results are given for COc1ccnc(C(=O)N[C@H]2CCC[C@H](Oc3ccc(F)cc3)[C@@H](Oc3ccc(F)cc3)[C@H](C)OC2=O)c1OCOC(=O)C(C)C [F49]?
pest or weed control at 100 ppm [1, 3]: 80 to 100%; pest or weed control at 100 ppm [1, 4]: 80 to 100%; pest or weed control at 100 ppm [2, 5]: 80 to 100%; pest or weed control at 100 ppm [2, 6]: 80 to 100%

How did the pest or weed control at 100 ppm [1, 3] turn out when COc1ccnc(C(=O)N[C@H]2CCC[C@H](OCC(C)C)[C@@H](OCCCC(F)(F)F)[C@H](C)OC2=O)c1OCOC(=O)C(C)C [F51] was run?
The pest or weed control at 100 ppm was 80 to 100%.

What about the pest or weed control at 100 ppm [1, 4] of the same compound?
Its pest or weed control at 100 ppm is 80 to 100%.

What about the pest or weed control at 100 ppm [2, 5] of the same compound?
The pest or weed control at 100 ppm was 80 to 100%.

What about the pest or weed control at 100 ppm [2, 6] of the same compound?
The pest or weed control at 100 ppm was 80 to 100%.
